# In ChEMBL document CHEMBL5247616, “Discovery of a NADPH oxidase inhibitor, (E)-3-cyclohexyl-5-(4-((2-hydroxyethyl)(methyl)amino)benzylidene)-1-methyl-2-thioxoimidazolidin-4-oneone, as a novel therapeutic for Parkinson's disease” (Eur J Med Chem, 2022):
# The source made the active and inactive calls. No cut-off for these calls is given here.
# Key:
# [1] = Toxicity in male ICR mouse assessed as survival rate at 100 mg/kg, iv administered as single dose for 14 days; assay type: organism-based; conditions: in vivo, time 14 day
# [2] = Toxicity in female ICR mouse assessed as survival rate at 300 mg/kg, po administered as single dose for 14 days; assay type: organism-based; conditions: in vivo, time 14 day
# [3] = Toxicity in female ICR mouse assessed as survival rate at 100 mg/kg, po administered as single dose for 14 days; assay type: organism-based; conditions: in vivo, time 14 day
# [4] = Toxicity in female ICR mouse assessed as survival rate at 30 mg/kg, iv administered as single dose for 14 days; assay type: organism-based; conditions: in vivo, time 14 day
# BV-2 [5] = assay: Antiinflammatory activity in mouse BV-2 cells assessed as suppression of LPS-stimulated iNOS production at 10 uM measured after 24 hrs by qPCR analysis; assay type: functional, cell-based
# [6] = Toxicity in male ICR mouse assessed as survival rate at 300 mg/kg, iv administered as single dose for 14 days; assay type: organism-based; conditions: in vivo, time 14 day
# [7] = AUClast in rat at 2 mg/kg, iv measured after 24 hrs by HPLC-UV method; assay type: ADME, organism-based; parameters: time 24 hrs, dose 2 mg/kg, route iv; conditions: in vivo
# [8] = AUClast in rat at 10 mg/kg, po measured after 24 hrs by HPLC-UV method; assay type: ADME, organism-based; parameters: dose 10 mg/kg, time 24 hrs, route po; conditions: in vivo
# [9] = Permeability coefficient of the compound across blood brain barrier at pH 7.4 incubated for 4 hrs by PAMPA assay; assay type: ADME; conditions: read-out: permeability
# [10] = Toxicity in male ICR mouse assessed as survival rate at 1000 mg/kg, po administered as single dose for 14 days; assay type: organism-based; conditions: in vivo, time 14 day
# [11] = Apparent volume of distribution in rat at 10 mg/kg, po measured after 24 hrs by HPLC-UV method; assay type: ADME, organism-based; conditions: in vivo
# [12] = Cmax in rat plasma at 20 mg/kg, po measured after 24 hrs by HPLC-UV method; assay type: ADME, organism-based; parameters: time 24 hrs, dose 20 mg/kg, route po
# [13] = C0 in rat plasma at 2 mg/kg, iv measured after 24 hrs by HPLC-UV method; assay type: ADME, organism-based
# BV-2 [14] = assay: Antiinflammatory activity in mouse BV-2 cells assessed as suppression of LPS-stimulated TNFalpha production at 10 uM measured after 24 hrs by qPCR analysis; assay type: functional, cell-based
# [15] = Toxicity in female ICR mouse assessed as survival rate at 10 mg/kg, iv administered as single dose for 14 days; assay type: organism-based; conditions: in vivo, time 14 day
# [16] = Toxicity in male ICR mouse assessed as survival rate at 300 mg/kg, po administered as single dose for 14 days; assay type: organism-based; conditions: in vivo, time 14 day
# [17] = Elimination rate constant in rat at 10 mg/kg, po measured after 24 hrs by HPLC-UV method; assay type: ADME, organism-based; conditions: in vivo, read-out: Ke (converted)
# [18] = Tmax in rat at 20 mg/kg, po measured after 24 hrs by HPLC-UV method; assay type: ADME, organism-based; conditions: in vivo
# [19] = Cmax in rat plasma at 10 mg/kg, po measured after 24 hrs by HPLC-UV method; assay type: ADME, organism-based; parameters: time 24 hrs, dose 10 mg/kg, route po
# [20] = Metabolic stability in human liver microsomes assessed as parent compound remaining preincubated for 5 mins followed by NADPH addition and measured after 30 mins by LC-MS/MS analysis; assay type: ADME, Microsome; conditions: read-out: Stability
# [21] = Elimination half life in rat at 2 mg/kg, iv measured after 24 hrs by HPLC-UV method; assay type: ADME, organism-based; conditions: in vivo, read-out: beta t1/2 (converted)
# [22] = Toxicity in female ICR mouse assessed as survival rate at 1000 mg/kg, po administered as single dose for 14 days; assay type: organism-based; conditions: in vivo, time 14 day
# Mus musculus [23] = assay: Antineuroinflammatory activity against MPTP induced parkinson's disease in C57BL/6 mouse model assessed as […] tyrosine hydroxylase positive dopaminergic neuron in substantia nigra at 10 mg/kg, po administered for 8 days by immunohistochemistry analysis; assay type: functional, organism-based; conditions: time 8.0 day
# [24] = Elimination half life in rat at 10 mg/kg, po measured after 24 hrs by HPLC-UV method; assay type: ADME, organism-based; conditions: in vivo, read-out: beta t1/2 (converted)
# [25] = Oral bioavailability in rat at 20 mg/kg measured after 24 hrs by HPLC-UV method; assay type: ADME, organism-based; conditions: in vivo
# [26] = Toxicity in female ICR mouse assessed as survival rate at 100 mg/kg, iv administered as single dose for 14 days; assay type: organism-based; conditions: in vivo, time 14 day
# BV-2 [27] = assay: Antiinflammatory activity in mouse BV-2 cells assessed as suppression of LPS-stimulated IL1beta production at 10 uM measured after 24 hrs by qPCR analysis; assay type: functional, cell-based
# [28] = Toxicity in male ICR mouse assessed as survival rate at 100 mg/kg, po administered as single dose for 14 days; assay type: organism-based; conditions: in vivo, time 14 day
# [29] = Volume of distribution in rat at 2 mg/kg, iv measured after 24 hrs by HPLC-UV method; assay type: ADME, organism-based; conditions: in vivo
# [30] = Toxicity in female ICR mouse assessed as survival rate at 300 mg/kg, iv administered as single dose for 14 days; assay type: organism-based; conditions: in vivo, time 14 day
# [31] = Elimination half life in rat at 20 mg/kg, po measured after 24 hrs by HPLC-UV method; assay type: ADME, organism-based; conditions: in vivo, read-out: beta t1/2 (converted)
# Mus musculus [32] = assay: Antineuroinflammatory activity against MPTP induced parkinson's disease in C57BL/6 mouse model assessed as decrease in IbA1+ microglial cells in striatum at 10 mg/kg, po administered for 8 days by immunohistochemistry analysis; assay type: functional, organism-based; conditions: time 8.0 day
# BV-2 [33] = assay: Inhibition of LPS-induced ROS production in mouse BV-2 cells preincubated for 30 mins followed by LPS addition and measured at 10 sec interval for 15 mins by lucigenin based chemiluminescence assay; assay type: functional, cell-based; conditions: dose 1-10000 nM, time 45.0 min
# [34] = Toxicity in male ICR mouse assessed as survival rate at 30 mg/kg, iv administered as single dose for 14 days; assay type: organism-based; conditions: in vivo, time 14 day
# [35] = Elimination rate constant in rat at 2 mg/kg, iv measured after 24 hrs by HPLC-UV method; assay type: ADME, organism-based; conditions: in vivo, read-out: Ke (converted)
# [36] = Elimination rate constant in rat at 20 mg/kg, po measured after 24 hrs by HPLC-UV method; assay type: ADME, organism-based; conditions: in vivo, read-out: Ke (converted)
# [37] = Toxicity in male ICR mouse assessed as survival rate at 10 mg/kg, iv administered as single dose for 14 days; assay type: organism-based; conditions: in vivo, time 14 day
# [38] = Dose normalized clearance in rat at 20 mg/kg, po measured after 24 hrs by HPLC-UV method; assay type: ADME, organism-based; conditions: in vivo
# [39] = Clearance in rat at 2 mg/kg, iv measured after 24 hrs by HPLC-UV method; assay type: ADME, organism-based; conditions: in vivo
# [40] = AUClast in rat at 20 mg/kg, po measured after 24 hrs by HPLC-UV method; assay type: ADME, organism-based; parameters: dose 20 mg/kg, time 24 hrs, route po; conditions: in vivo
# BV-2 [41] = assay: Inhibition of cell migration in LPS-induced mouse BV-2 cells at 10 uM incubated for 24 hrs by crystal violet staining based transwell assay; assay type: functional
# [42] = Apparent volume of distribution in rat at 20 mg/kg, po measured after 24 hrs by HPLC-UV method; assay type: ADME, organism-based; conditions: in vivo
# [43] = Oral bioavailability in rat at 10 mg/kg measured after 24 hrs by HPLC-UV method; assay type: ADME, organism-based; conditions: in vivo
# [44] = Tmax in rat at 10 mg/kg, po measured after 24 hrs by HPLC-UV method; assay type: ADME, organism-based; conditions: in vivo
# [45] = Dose normalized clearance in rat at 10 mg/kg, po measured after 24 hrs by HPLC-UV method; assay type: ADME, organism-based; conditions: in vivo, read-out: Dose normalized clearance (converted)
# Mus musculus [46] = assay: Antineuroinflammatory activity against MPTP induced parkinson's disease in C57BL/6 mouse model assessed as decrease in IbA1+ microglial cells in substantia nigra at 10 mg/kg, po administered for 8 days by immunohistochemistry analysis; assay type: functional, organism-based; conditions: time 8.0 day
# Mus musculus [47] = assay: Antineuroinflammatory activity against MPTP induced parkinson's disease in C57BL/6 mouse model assessed as […] tyrosine hydroxylase positive dopaminergic neuron in striatum at 10 mg/kg, po administered for 8 days by immunohistochemistry analysis; assay type: functional, organism-based; conditions: time 8.0 day
smiles,measurement,setting,value
CN1C(=S)N(C2CCCCC2)C(=O)/C1=C\c1ccc(N(C)CCO)cc1,survival at 336 h,[1],100%
same,survival at 336 h,[2],100%
same,survival at 336 h,[3],100%
same,survival at 336 h,[4],100%
same,Activity,BV-2 [5],Active
same,survival at 336 h,[6],100%
same,AUC(0-t) at 24 h,[7],468 ng·h/mL
same,AUC(0-t) at 24 h,[8],1310 ng·h/mL
same,Papp at 4 h,[9],13.6 ×10⁻⁶ cm/s
same,survival at 336 h,[10],100%
same,Vd/F,[11],1.99 L
same,Cmax,[12],783 ng/mL
same,C0 at 24 h,[13],1700 ng/mL
same,Activity,BV-2 [14],Active
same,survival at 336 h,[15],100%
same,survival at 336 h,[16],100%
same,k el at 24 h,[17],4.72e-05 s⁻¹
same,Tmax,[18],40.2 min
same,Cmax,[19],609 ng/mL
same,remaining at 0.5 h,[20],76.3%
same,half-life,[21],47.4 min
same,survival at 336 h,[22],100%
same,Activity,Mus musculus [23],Active
same,half-life,[24],301 min
same,bioavailability,[25],88.9%
same,survival at 336 h,[26],100%
same,Activity,BV-2 [27],Active
same,survival at 336 h,[28],100%
same,Vd,[29],0.211 L
same,survival at 336 h,[30],100%
same,half-life,[31],368 min
same,Activity,Mus musculus [32],Active
same,inhibition,BV-2 [33],Dose-Dependent Effect
same,survival at 336 h,[34],100%
same,k el at 24 h,[35],0.000367 s⁻¹
same,k el at 24 h,[36],4.42e-05 s⁻¹
same,survival at 336 h,[37],100%
same,Dose normalized clearance,[38],0.217 L/h
same,clearance,[39],3.62 mL/min
same,AUC(0-t) at 24 h,[40],4160 ng·h/mL
same,inhibition,BV-2 [41],Active
same,Vd/F,[42],1.82 L
same,bioavailability,[43],56%
same,Tmax,[44],4.98 min
same,CL/F,[45],5.68 mL/min
same,Activity,Mus musculus [46],Active
same,Activity,Mus musculus [47],Active
